Molecules are shown by their SMILES.

The nature of the data set: Human HepG2 cell viability assay in 384 well format. Format: toxicity, cell-based. Set-up: dose 125 nL, time 70.5 hour; cytotoxicity at 70.5 h: concentration not given beside the values. As to conditions: HepG2 cells, read-out: Inhibition.
As to `N[C@@H](Cc1ccccc1)c1nnc(S(=O)(=O)Cc2ccccc2)o1`, the cytotoxicity at 70.5 h turned out to be 15.6%.
Take `COc1ccnc(NC2CCN(CC(=O)Nc3ccccc3)CC2)n1`: the cytotoxicity at 70.5 h stood at 4.43%.
The same measure for `CCN1CCN(C(=O)c2ccn(C)c(=O)c2)CC1`: 32.5%; for `CCN(CC)S(=O)(=O)c1ccc(C(=O)NC(C)(C#N)C2CC2)cc1` (stereo unspecified): 19.1%.
To `O=C(N1CCCCC1)N1CCN(CC(O)c2ccc(F)cc2)CC1` (stereo unspecified) belongs -7.9%; to `Cc1n[nH]c(=O)c2c(NC(=O)CN3CCOC(C)C3)oc(C)c12` (stereo unspecified), 12.5%.
To `CN(CC(=O)N1CCCC1)C(=O)c1ccccc1Nc1ccccc1` belongs 18.3%.
Take `CC(C)(C)c1nnnn1CC(=O)N(CCC#N)c1ccccc1`: the cytotoxicity at 70.5 h was -9.07%.
Take `Cn1ccc(C(=O)NCCOc2ccc(C(C)(C)C)cc2)cc1=O`: the cytotoxicity at 70.5 h is -4.21%.
On to `O=C(NCCSC1CCCC1)c1cc(C2CC2)on1`, for which the cytotoxicity at 70.5 h was -0.97%.
The same measure for `CC(=O)N(C)Cc1ccccc1NCc1c(C)noc1C`: -3.61%; for `CC(=O)c1ccc(OCC(=O)c2cccn2C)cc1`: -0.625%; for `O=C(C1CC(c2ccccc2)=NO1)N1CCc2ccccc21` (stereo unspecified): 28.5%.
To `CCC(NS(C)(=O)=O)c1ccccc1OC` (stereo unspecified) belongs -1.94%; to `O=C(CCn1cccn1)NCCOc1cccc(Cl)c1`, -7.23%.
The same measure for `Cc1ccc(NCc2ccccc2C#N)cc1-n1cnnn1`: 0.552%; for `CN(C)C(=O)C1CCCN1c1ncnc2ccsc12` (stereo unspecified): -10.1%; for `CN1CCC(CNC(=O)c2cccc(C(F)(F)F)c2)c2ccccc21` (stereo unspecified): 0.294%.
Regarding `Cc1nnc(NCc2cccc(OCC3CCCO3)c2)c(C#N)c1C` (stereo unspecified), the cytotoxicity at 70.5 h came to 29%.
To `CS(=O)(=O)c1ccc(NCC2CCCO2)c(S(C)(=O)=O)c1` (stereo unspecified) belongs -9.12%; to `CCn1cnnc1CNc1nc(C)nc2scc(CC(C)C)c12`, -15.9%.
As to `Cc1cc(NCCc2nc(C)cs2)nc(-c2cccnc2)n1`, the cytotoxicity at 70.5 h is -9.72%.
The same measure for `Cn1cc(S(=O)(=O)N(CC(F)(F)F)C2CC2)cc1C(N)=O`: -4.65%; for `N#Cc1ncn(CC(=O)Cc2c(F)cccc2Cl)n1`: -5.66%; for `Cc1c(C(C)Nc2ncnc3sccc23)cnn1C` (stereo unspecified): -8.04%.
To `Cc1nnc(NCc2cccc(OCc3ccccn3)c2)c(C#N)c1C` belongs -4.44%; to `c1cc(CNCCc2cn3ccccc3n2)c2c(c1)OCCCO2`, -6.72%.
To `Cc1cc(C)c2cc(C(=O)N3CCN(Cc4ccco4)CC3)[nH]c2c1` belongs -13.2%; to `Cc1csc(NC(=O)CN(C)CCOc2cccc(F)c2)n1`, 15.2%.
In the case of `Cc1ccccc1OCCn1cnc2oc(C)c(C(=O)O)c2c1=O`, the cytotoxicity at 70.5 h is -7.96%.
The same measure for `CNC(=O)Nc1cc(-c2ccccc2C)nn1CCO`: 21.1%; for `CN(C(=O)CCNC(=O)NC1CCCCC1)c1ccccc1`: 38.6%.
To `COc1ccc(NC(=O)NCC(O)c2ccc(F)cc2F)c(OC)c1` (stereo unspecified) belongs 2.76%.
As for `CC1CCN(C(=O)c2ccnc(-n3cncn3)c2)c2ccccc21` (stereo unspecified), the cytotoxicity at 70.5 h worked out at 13.2%.
Consider `CNC(=O)NC(=O)CSc1ccc2c(c1)CCC2`, for which the cytotoxicity at 70.5 h was -5.43%.
To `CCN1C(=O)CC(N(C)Cc2nc3ccccc3c(=O)[nH]2)C1=O` (stereo unspecified) belongs -7.75%.
The same measure for `COc1cc(CNC(C)Cn2cccn2)cc(OC)c1OC` (stereo unspecified): -7.54%; for `CC(NCc1ccc(OCC(N)=O)cc1)c1ccc(Cl)c(Cl)c1` (stereo unspecified): -8.72%; for `Cc1nn(CCC#N)c(C)c1CCC(=O)N(C)C`: 13.3%.
The same measure for `COc1cc2c(cc1CNCc1cccnc1-n1cccn1)OC(C)C2` (stereo unspecified): 16.8%.
Regarding `CC(NCc1cnc(N2CCOCC2)nc1)c1ccc(Cl)s1` (stereo unspecified), the cytotoxicity at 70.5 h is -9.24%.

Source of the values: ChEMBL document CHEMBL3507680, “University of Dundee, Gates Library screen for HepG2 cell viability”.
